# PubChem BioAssay (NCI)
#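 Tested at 5 concentrations; 48 h exposure; 96-well plates; endpoints linearly interpolated, else capped at highest concentration. GI50 = concentration required for 50% inhibition of growth. TGI denotes the concentration required for complete inhibition of growth.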
# Legend:
# Test in all cases: inhibition of tumour cell growth, NCI panel, 48 h
# A498 renal = tested on: A498 renal
# NCI-H460 lung = tested on: NCI-H460 lung
# SW-620 colon = tested on: SW-620 colon
# OVCAR-5 ovarian = tested on: OVCAR-5 ovarian
# SF-268 CNS = tested on: SF-268 CNS
# SK-MEL-2 melanoma = tested on: SK-MEL-2 melanoma
# HL-60(TB) leukemia = tested on: HL-60(TB) leukemia
# RPMI-8226 leukemia = tested on: RPMI-8226 leukemia
# MDA-MB-435 = tested on: MDA-MB-435
# MOLT-4 leukemia = tested on: MOLT-4 leukemia
# OVCAR-3 ovarian = tested on: OVCAR-3 ovarian
# U251 CNS = tested on: U251 CNS
# MALME-3M melanoma = tested on: MALME-3M melanoma
# SF-295 CNS = tested on: SF-295 CNS
# UO-31 renal = tested on: UO-31 renal
# CCRF-CEM leukemia = tested on: CCRF-CEM leukemia
# LOX IMVI melanoma = tested on: LOX IMVI melanoma
# NCI/ADR-RES ovarian = tested on: NCI/ADR-RES ovarian
# SK-MEL-28 melanoma = tested on: SK-MEL-28 melanoma
# K-562 leukemia = tested on: K-562 leukemia
# SNB-19 CNS = tested on: SNB-19 CNS
# UACC-62 melanoma = tested on: UACC-62 melanoma
# HCT-116 colon = tested on: HCT-116 colon
# HCC-2998 colon = tested on: HCC-2998 colon
# SNB-75 CNS = tested on: SNB-75 CNS
# IGROV1 ovarian = tested on: IGROV1 ovarian
# MCF7 breast = tested on: MCF7 breast
# OVCAR-8 ovarian = tested on: OVCAR-8 ovarian
# 786-0 renal = tested on: 786-0 renal
# SK-OV-3 ovarian = tested on: SK-OV-3 ovarian
# SN12C renal = tested on: SN12C renal
# HCT-15 colon = tested on: HCT-15 colon
# OVCAR-4 ovarian = tested on: OVCAR-4 ovarian
# MDA-MB-231 breast = tested on: MDA-MB-231 breast
# DU-145 prostate = tested on: DU-145 prostate
# ACHN renal = tested on: ACHN renal
# NCI-H226 lung = tested on: NCI-H226 lung
# PC-3 prostate = tested on: PC-3 prostate
# NCI-H23 lung = tested on: NCI-H23 lung
# COLO 205 colon = tested on: COLO 205 colon
# HOP-62 NSCLC = tested on: HOP-62 NSCLC
# EKVX NSCLC = tested on: EKVX NSCLC
# CAKI-1 renal = tested on: CAKI-1 renal
# SF-539 CNS = tested on: SF-539 CNS
# M14 melanoma = tested on: M14 melanoma
# T-47D breast = tested on: T-47D breast
# TK-10 renal = tested on: TK-10 renal
# HOP-92 NSCLC = tested on: HOP-92 NSCLC
# NCI-H522 lung = tested on: NCI-H522 lung
# BT-549 breast = tested on: BT-549 breast
# UACC-257 melanoma = tested on: UACC-257 melanoma
# KM12 colon = tested on: KM12 colon
# A549 NSCLC = tested on: A549 NSCLC
# HS 578T breast = tested on: HS 578T breast
# SK-MEL-5 melanoma = tested on: SK-MEL-5 melanoma
# SR leukemia = tested on: SR leukemia
# HT29 colon = tested on: HT29 colon
smiles,measurement,setting,value
O=C(CCCCCCNC(=O)C(O)(O)C(F)(F)F)Nc1ccc(Br)cc1,GI50,A498 renal,1.09 µM
same,TGI,A498 renal,9.68 µM
same,GI50,NCI-H460 lung,2.41 µM
same,TGI,NCI-H460 lung,> 33 µM
same,GI50,SW-620 colon,1.57 µM
same,TGI,SW-620 colon,7.16 µM
same,GI50,OVCAR-5 ovarian,1.96 µM
same,TGI,OVCAR-5 ovarian,12.5 µM
same,GI50,SF-268 CNS,5.78 µM
same,TGI,SF-268 CNS,21.8 µM
same,GI50,SK-MEL-2 melanoma,3.29 µM
same,TGI,SK-MEL-2 melanoma,20.1 µM
same,GI50,HL-60(TB) leukemia,2.21 µM
same,TGI,HL-60(TB) leukemia,> 33 µM
same,GI50,RPMI-8226 leukemia,1.9 µM
same,TGI,RPMI-8226 leukemia,> 33 µM
same,GI50,MDA-MB-435,3.64 µM
same,TGI,MDA-MB-435,> 33 µM
same,GI50,MOLT-4 leukemia,1.42 µM
same,TGI,MOLT-4 leukemia,> 33 µM
same,GI50,OVCAR-3 ovarian,2.22 µM
same,TGI,OVCAR-3 ovarian,7.5 µM
same,GI50,U251 CNS,3.64 µM
same,TGI,U251 CNS,17.6 µM
same,GI50,MALME-3M melanoma,1.54 µM
same,TGI,MALME-3M melanoma,> 33 µM
same,GI50,SF-295 CNS,2.73 µM
same,TGI,SF-295 CNS,8.17 µM
same,GI50,UO-31 renal,1.98 µM
same,TGI,UO-31 renal,14.8 µM
same,GI50,CCRF-CEM leukemia,1.9 µM
same,TGI,CCRF-CEM leukemia,> 33 µM
same,GI50,LOX IMVI melanoma,2.9 µM
same,TGI,LOX IMVI melanoma,7.5 µM
same,GI50,NCI/ADR-RES ovarian,4.12 µM
same,TGI,NCI/ADR-RES ovarian,18.6 µM
same,GI50,SK-MEL-28 melanoma,2.38 µM
same,TGI,SK-MEL-28 melanoma,18.7 µM
same,GI50,K-562 leukemia,1.2 µM
same,TGI,K-562 leukemia,> 33 µM
same,GI50,SNB-19 CNS,5.58 µM
same,TGI,SNB-19 CNS,18.1 µM
same,GI50,UACC-62 melanoma,1.59 µM
same,TGI,UACC-62 melanoma,6.2 µM
same,GI50,HCT-116 colon,1.12 µM
same,TGI,HCT-116 colon,> 33 µM
same,GI50,HCC-2998 colon,5.35 µM
same,TGI,HCC-2998 colon,13.2 µM
same,GI50,SNB-75 CNS,3 µM
same,TGI,SNB-75 CNS,> 33 µM
same,GI50,IGROV1 ovarian,4.48 µM
same,TGI,IGROV1 ovarian,14.1 µM
same,GI50,MCF7 breast,7.77 µM
same,TGI,MCF7 breast,> 33 µM
same,GI50,OVCAR-8 ovarian,2.32 µM
same,TGI,OVCAR-8 ovarian,> 33 µM
same,GI50,786-0 renal,4.47 µM
same,TGI,786-0 renal,> 33 µM
same,GI50,SK-OV-3 ovarian,1.95 µM
same,TGI,SK-OV-3 ovarian,17.3 µM
same,GI50,SN12C renal,5.01 µM
same,TGI,SN12C renal,24.6 µM
same,GI50,HCT-15 colon,5.23 µM
same,TGI,HCT-15 colon,14.1 µM
same,GI50,OVCAR-4 ovarian,13.4 µM
same,TGI,OVCAR-4 ovarian,> 33 µM
same,GI50,MDA-MB-231 breast,2.12 µM
same,TGI,MDA-MB-231 breast,16.6 µM
same,GI50,DU-145 prostate,5.46 µM
same,TGI,DU-145 prostate,> 33 µM
same,GI50,ACHN renal,2.65 µM
same,TGI,ACHN renal,17.7 µM
same,GI50,NCI-H226 lung,8.33 µM
same,TGI,NCI-H226 lung,> 33 µM
same,GI50,PC-3 prostate,2.86 µM
same,TGI,PC-3 prostate,> 33 µM
same,GI50,NCI-H23 lung,4.6 µM
same,TGI,NCI-H23 lung,19.6 µM
same,GI50,COLO 205 colon,5.02 µM
same,TGI,COLO 205 colon,17.7 µM
same,GI50,HOP-62 NSCLC,4.29 µM
same,TGI,HOP-62 NSCLC,> 33 µM
same,GI50,EKVX NSCLC,5.49 µM
same,TGI,EKVX NSCLC,> 33 µM
same,GI50,CAKI-1 renal,7.02 µM
same,TGI,CAKI-1 renal,> 33 µM
same,GI50,SF-539 CNS,5.87 µM
same,TGI,SF-539 CNS,> 33 µM
same,GI50,M14 melanoma,7.12 µM
same,TGI,M14 melanoma,> 33 µM
same,GI50,T-47D breast,1.69 µM
same,TGI,T-47D breast,24.3 µM
same,GI50,TK-10 renal,1.09 µM
same,TGI,TK-10 renal,> 33 µM
same,GI50,HOP-92 NSCLC,0.554 µM
same,TGI,HOP-92 NSCLC,3.25 µM
same,GI50,NCI-H522 lung,4.19 µM
same,TGI,NCI-H522 lung,22.8 µM
same,GI50,BT-549 breast,6.42 µM
same,TGI,BT-549 breast,> 33 µM
same,GI50,UACC-257 melanoma,6.7 µM
same,TGI,UACC-257 melanoma,> 33 µM
same,GI50,KM12 colon,4.82 µM
same,TGI,KM12 colon,24.3 µM
same,GI50,A549 NSCLC,8.39 µM
same,TGI,A549 NSCLC,> 33 µM
same,GI50,HS 578T breast,3.84 µM
same,TGI,HS 578T breast,30.1 µM
same,GI50,SK-MEL-5 melanoma,4.14 µM
same,TGI,SK-MEL-5 melanoma,8.46 µM
same,GI50,SR leukemia,1.74 µM
same,TGI,SR leukemia,> 33 µM
same,GI50,HT29 colon,5.11 µM
same,TGI,HT29 colon,> 33 µM
